Tests used:
[1] = target: Tyrosine-protein kinase ABL1 (Homo sapiens) (UniProt P00519); test: Inhibition of wild-type human non-phosphorylated ABL1 (S229 to K512 residues) expressed in mammalian expression system at 1 uM by Kinomescan method relative to control
[2] = target: Dual specificity protein kinase CLK1 (Homo sapiens) (UniProt P49759); test: Inhibition of wild-type human full length CLK1 (M1 to I484 residues) expressed in bacterial expression system at 1 uM by Kinomescan method relative to control
[3] = target: Serine/threonine-protein kinase DCLK1 (Homo sapiens) (UniProt O15075); test: Inhibition of wild-type human partial length DCAMKL1 (L270 to A662 residues) expressed in mammalian expression system at 1 uM by Kinomescan method relative to control
[4] = test system: Epidermal growth factor receptor (Homo sapiens), P00533 [G719S]; test: Inhibition of human partial length EGFR G719S mutant (R669 to V1011 residues) expressed in bacterial expression system at 1 uM by Kinomescan method relative to control
[5] = test system: Epidermal growth factor receptor (Homo sapiens), P00533 [L858R]; test: Inhibition of human partial length EGFR L858R mutant (R669 to V1011 residues) expressed in bacterial expression system at 1 uM by Kinomescan method relative to control
[6] = target: Mitogen-activated protein kinase 4 (Homo sapiens) (UniProt P31152); test: Inhibition of wild-type human partial length ERK4 (M1 to L365 residues) expressed in bacterial expression system at 1 uM by Kinomescan method relative to control
[7] = target: Tyrosine-protein kinase HCK (Homo sapiens) (UniProt P08631); test: Inhibition of wild-type human full length HCK (M22 to P526 residues) expressed in bacterial expression system at 1 uM by Kinomescan method relative to control
[8] = test system: Mast/stem cell growth factor receptor Kit (Homo sapiens), P10721 [D816H]; test: Inhibition of human partial length KIT D816H mutant (I571 to D952 residues) expressed in mammalian expression system at 1 uM by Kinomescan method relative to control
[9] = test system: Mast/stem cell growth factor receptor Kit (Homo sapiens), P10721 [L576P]; test: Inhibition of human partial length KIT L576P mutant (Y545 to D952 residues) expressed in bacterial expression system at 1 uM by Kinomescan method relative to control
[10] = target: Hepatocyte growth factor receptor (Homo sapiens) (UniProt P08581); test: Inhibition of wild-type human partial length MET (D1010 to S1367 residues) expressed in bacterial expression system at 1 uM by Kinomescan method relative to control
[11] = target: Serine/threonine-protein kinase MRCK alpha (Homo sapiens) (UniProt Q5VT25); test: Inhibition of wild-type human partial length MRCKA (L57 to V418 residues) expressed in bacterial expression system at 1 uM by Kinomescan method relative to control
[12] = target: Myosin light chain kinase 2, skeletal/cardiac muscle (Homo sapiens) (UniProt Q9H1R3); test: Inhibition of wild-type human partial length MYLK2 (D258 to K570 residues) expressed in bacterial expression system at 1 uM by Kinomescan method relative to control
[13] = test system: Phosphatidylinositol 4,5-bisphosphate 3-kinase catalytic subunit alpha isoform (Homo sapiens), P42336 [I800L]; test: Inhibition of human partial length PIK3CA I800L mutant (R108 to N1068 residues) expressed in mammalian expression system at 1 uM by Kinomescan method relative to control
[14] = target: Phosphatidylinositol 4,5-bisphosphate 3-kinase catalytic subunit delta isoform (Homo sapiens) (UniProt O00329); test: Inhibition of wild-type human partial length PIK3CD (R108 to Q1044 residues) expressed in mammalian expression system at 1 uM by Kinomescan method relative to control
[15] = target: Serine/threonine-protein kinase PLK1 (Homo sapiens) (UniProt P53350); test: Inhibition of wild-type human partial length PLK1 (A33 to F325 residues) expressed in mammalian expression system at 1 uM by Kinomescan method relative to control
[16] = target: Serine/threonine-protein kinase RIO3 (Homo sapiens) (UniProt O14730); test: Inhibition of wild-type human full length RIOK3 (M1 to E519 residues) expressed in bacterial expression system at 1 uM by Kinomescan method relative to control
[17] = target: STE20/SPS1-related proline-alanine-rich protein kinase (Homo sapiens) (UniProt Q9UEW8); test: Inhibition of wild-type human partial length STK39 (P43 to I357 residues) expressed in mammalian expression system at 1 uM by Kinomescan method relative to control
[18] = target: TGF-beta receptor type-2 (Homo sapiens) (UniProt P37173); test: Inhibition of wild-type human partial length TGFBR2 (I218 to K567 residues) expressed in bacterial expression system at 1 uM by Kinomescan method relative to control
[19] = target: Serine/threonine-protein kinase BRSK1 (Homo sapiens) (UniProt Q8TDC3); test: Inhibition of wild-type human partial length BRSK1 (M1 to E754 residues) expressed in bacterial expression system at 10 uM by Kinomescan method relative to control
[20] = target: Mitogen-activated protein kinase 7 (Homo sapiens) (UniProt Q13164); test: Inhibition of wild-type human partial length ERK5 (M1 to A409 residues) expressed in bacterial expression system at 10 uM by Kinomescan method relative to control
[21] = target: Dual specificity mitogen-activated protein kinase kinase 1 (Homo sapiens) (UniProt Q02750); test: Inhibition of wild-type human full length MEK1 (M1 to V393 residues) expressed in mammalian expression system at 10 uM by Kinomescan method relative to control
[22] = target: Serine/threonine-protein kinase 3 (Homo sapiens) (UniProt Q13188); test: Inhibition of wild-type human partial length MST2 (D17 to E318 residues) expressed in bacterial expression system at 10 uM by Kinomescan method relative to control
[23] = target: cGMP-dependent protein kinase 2 (Homo sapiens) (UniProt Q13237); test: Inhibition of wild-type human partial length PRKG2 (S422 to F762 residues) expressed in mammalian expression system at 10 uM by Kinomescan method relative to control
[24] = target: Ribosomal protein S6 kinase alpha-4 (Homo sapiens) (UniProt O75676); test: Inhibition of wild-type human partial length C-terminal RPS6KA4 kinase domain 2 (M375 to T705 residues) expressed in mammalian expression system at 10 uM by Kinomescan method relative to control
[25] = target: Serine/threonine-protein kinase TBK1 (Homo sapiens) (UniProt Q9UHD2); test: Inhibition of wild-type human full length TBK1 (M1 to L729 residues) expressed in mammalian expression system at 10 uM by Kinomescan method relative to control
[26] = target: Activated CDC42 kinase 1 (Homo sapiens) (UniProt Q07912); test: Inhibition of wild-type human partial length TNK2 (S159 to D474 residues) expressed in bacterial expression system at 10 uM by Kinomescan method relative to control
[27] = target: Tyrosine-protein kinase BTK (Homo sapiens, UniProt Q06187); conditions: 10 uM
Description: Inhibition of wild-type human full length BTK (M1 to S659 residues) expressed in mammalian expression system at 10 uM by Kinomescan method relative to control

Sequence of Mitogen-activated protein kinase 4 (Homo sapiens) (P31152 whole entry, the tested form may be a part): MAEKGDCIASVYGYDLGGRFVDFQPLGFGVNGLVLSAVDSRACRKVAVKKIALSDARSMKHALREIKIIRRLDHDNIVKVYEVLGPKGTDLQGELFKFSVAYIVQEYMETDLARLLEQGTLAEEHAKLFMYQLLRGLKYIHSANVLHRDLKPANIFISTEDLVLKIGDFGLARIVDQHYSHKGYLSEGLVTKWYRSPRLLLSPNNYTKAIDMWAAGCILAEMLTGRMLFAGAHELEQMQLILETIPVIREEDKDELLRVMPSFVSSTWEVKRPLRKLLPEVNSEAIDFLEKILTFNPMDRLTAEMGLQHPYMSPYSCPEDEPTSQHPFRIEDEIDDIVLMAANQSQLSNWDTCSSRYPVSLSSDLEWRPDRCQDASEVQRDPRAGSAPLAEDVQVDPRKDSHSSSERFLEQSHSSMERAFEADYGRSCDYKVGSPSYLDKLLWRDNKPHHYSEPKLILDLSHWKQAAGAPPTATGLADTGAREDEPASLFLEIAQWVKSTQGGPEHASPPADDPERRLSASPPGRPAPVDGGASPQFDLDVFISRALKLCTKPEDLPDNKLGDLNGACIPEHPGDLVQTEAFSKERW
Sequence of Mast/stem cell growth factor receptor Kit (Homo sapiens), P10721 [D816H] (P10721 whole entry D816H, the tested form may be a part): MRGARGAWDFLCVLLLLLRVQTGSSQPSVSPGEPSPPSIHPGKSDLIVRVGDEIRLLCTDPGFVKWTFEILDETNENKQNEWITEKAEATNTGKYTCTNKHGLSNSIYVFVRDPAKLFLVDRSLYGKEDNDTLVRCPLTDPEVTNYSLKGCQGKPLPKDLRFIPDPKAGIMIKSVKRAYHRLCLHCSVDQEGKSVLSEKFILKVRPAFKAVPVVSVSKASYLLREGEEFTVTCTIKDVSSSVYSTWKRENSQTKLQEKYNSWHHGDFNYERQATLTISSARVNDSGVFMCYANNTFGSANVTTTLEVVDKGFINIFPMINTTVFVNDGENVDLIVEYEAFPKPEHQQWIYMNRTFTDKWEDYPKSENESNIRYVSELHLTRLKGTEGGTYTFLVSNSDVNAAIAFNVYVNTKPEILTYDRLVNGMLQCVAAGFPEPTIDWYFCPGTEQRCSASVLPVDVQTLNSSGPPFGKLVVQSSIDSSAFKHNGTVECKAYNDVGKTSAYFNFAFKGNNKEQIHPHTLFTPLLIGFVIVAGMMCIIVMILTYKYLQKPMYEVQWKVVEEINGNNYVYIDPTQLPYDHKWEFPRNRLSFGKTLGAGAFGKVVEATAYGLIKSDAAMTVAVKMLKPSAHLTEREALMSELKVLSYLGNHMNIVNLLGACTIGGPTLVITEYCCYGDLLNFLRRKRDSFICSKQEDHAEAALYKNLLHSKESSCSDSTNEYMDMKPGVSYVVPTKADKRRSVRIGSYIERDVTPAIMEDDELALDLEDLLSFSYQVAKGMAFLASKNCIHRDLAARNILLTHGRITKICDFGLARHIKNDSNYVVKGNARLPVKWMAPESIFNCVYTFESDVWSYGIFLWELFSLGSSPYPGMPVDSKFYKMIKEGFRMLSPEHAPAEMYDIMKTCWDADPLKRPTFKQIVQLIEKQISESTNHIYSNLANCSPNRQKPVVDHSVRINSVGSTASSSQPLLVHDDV
Sequence of Tyrosine-protein kinase HCK (Homo sapiens) (P08631 2-526 limits assumed): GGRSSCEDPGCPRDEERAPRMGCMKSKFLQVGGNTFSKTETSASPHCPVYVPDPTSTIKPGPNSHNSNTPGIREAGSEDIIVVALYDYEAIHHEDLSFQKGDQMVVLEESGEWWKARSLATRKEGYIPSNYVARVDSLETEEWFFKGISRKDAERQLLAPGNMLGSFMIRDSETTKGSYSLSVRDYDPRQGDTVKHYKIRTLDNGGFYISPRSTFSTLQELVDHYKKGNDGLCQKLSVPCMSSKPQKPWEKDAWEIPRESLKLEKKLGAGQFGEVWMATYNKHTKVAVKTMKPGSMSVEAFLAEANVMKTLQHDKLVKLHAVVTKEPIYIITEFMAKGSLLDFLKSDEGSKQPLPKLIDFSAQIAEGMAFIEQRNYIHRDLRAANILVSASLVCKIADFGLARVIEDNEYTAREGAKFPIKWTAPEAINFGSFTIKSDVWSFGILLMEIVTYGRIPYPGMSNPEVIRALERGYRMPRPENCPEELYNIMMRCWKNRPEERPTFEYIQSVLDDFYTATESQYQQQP
Sequence of TGF-beta receptor type-2 (Homo sapiens) (P37173 whole entry, the tested form may be a part): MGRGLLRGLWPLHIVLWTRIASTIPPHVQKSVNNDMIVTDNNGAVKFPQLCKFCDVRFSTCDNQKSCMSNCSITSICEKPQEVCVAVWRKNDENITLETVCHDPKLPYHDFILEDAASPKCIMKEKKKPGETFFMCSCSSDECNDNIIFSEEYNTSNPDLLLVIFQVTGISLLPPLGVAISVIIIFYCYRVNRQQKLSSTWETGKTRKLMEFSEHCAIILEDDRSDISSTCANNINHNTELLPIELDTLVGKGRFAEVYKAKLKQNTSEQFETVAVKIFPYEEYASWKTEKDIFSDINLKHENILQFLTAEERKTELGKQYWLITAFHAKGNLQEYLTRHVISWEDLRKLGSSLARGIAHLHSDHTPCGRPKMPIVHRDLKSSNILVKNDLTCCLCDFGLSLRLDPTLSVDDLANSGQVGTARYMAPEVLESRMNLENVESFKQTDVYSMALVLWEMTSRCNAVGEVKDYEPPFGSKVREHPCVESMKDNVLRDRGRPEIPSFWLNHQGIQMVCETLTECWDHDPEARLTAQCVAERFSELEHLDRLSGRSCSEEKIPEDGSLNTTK
Sequence of Hepatocyte growth factor receptor (Homo sapiens) (P08581 whole entry, the tested form may be a part): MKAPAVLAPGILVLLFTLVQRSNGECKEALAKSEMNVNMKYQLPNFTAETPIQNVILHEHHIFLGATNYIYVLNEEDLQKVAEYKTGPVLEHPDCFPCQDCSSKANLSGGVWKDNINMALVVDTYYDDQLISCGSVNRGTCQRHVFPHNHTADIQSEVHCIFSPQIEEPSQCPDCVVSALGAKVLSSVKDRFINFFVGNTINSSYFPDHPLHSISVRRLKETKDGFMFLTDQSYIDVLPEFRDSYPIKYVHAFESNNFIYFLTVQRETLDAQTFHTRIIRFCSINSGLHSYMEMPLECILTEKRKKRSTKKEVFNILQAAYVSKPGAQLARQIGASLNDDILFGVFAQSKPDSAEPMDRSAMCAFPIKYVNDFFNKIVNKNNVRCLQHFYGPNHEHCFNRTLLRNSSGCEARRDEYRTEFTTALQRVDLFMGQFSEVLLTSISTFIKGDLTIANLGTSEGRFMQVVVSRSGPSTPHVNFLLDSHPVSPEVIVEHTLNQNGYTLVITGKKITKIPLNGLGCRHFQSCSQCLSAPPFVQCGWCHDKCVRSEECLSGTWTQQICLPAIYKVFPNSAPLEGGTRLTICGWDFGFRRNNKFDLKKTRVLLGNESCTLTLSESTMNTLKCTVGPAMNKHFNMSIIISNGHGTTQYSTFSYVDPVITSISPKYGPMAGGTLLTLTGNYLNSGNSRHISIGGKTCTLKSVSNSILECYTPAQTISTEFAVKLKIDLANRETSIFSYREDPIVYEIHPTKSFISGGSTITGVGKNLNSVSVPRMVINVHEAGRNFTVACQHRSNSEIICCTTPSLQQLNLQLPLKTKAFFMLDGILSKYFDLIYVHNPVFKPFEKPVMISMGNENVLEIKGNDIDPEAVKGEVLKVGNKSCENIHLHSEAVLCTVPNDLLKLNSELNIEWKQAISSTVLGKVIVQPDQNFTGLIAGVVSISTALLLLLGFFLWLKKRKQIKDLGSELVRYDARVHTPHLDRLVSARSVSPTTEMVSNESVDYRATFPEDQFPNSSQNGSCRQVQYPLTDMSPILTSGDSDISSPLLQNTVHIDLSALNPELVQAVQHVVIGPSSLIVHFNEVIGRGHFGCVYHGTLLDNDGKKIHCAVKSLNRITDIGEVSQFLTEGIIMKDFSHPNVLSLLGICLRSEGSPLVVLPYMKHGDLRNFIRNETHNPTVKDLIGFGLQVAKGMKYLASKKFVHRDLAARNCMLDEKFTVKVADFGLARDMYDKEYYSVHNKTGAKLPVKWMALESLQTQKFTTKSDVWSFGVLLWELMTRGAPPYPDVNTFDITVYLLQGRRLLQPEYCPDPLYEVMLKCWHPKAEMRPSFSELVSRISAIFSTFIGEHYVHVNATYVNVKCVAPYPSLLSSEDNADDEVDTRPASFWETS
Sequence of Mast/stem cell growth factor receptor Kit (Homo sapiens), P10721 [L576P] (P10721 whole entry L576P, the tested form may be a part): as the sequence (P10721 whole entry D816H, the tested form may be a part) above, with L576P, H816D counted along it
Sequence of Serine/threonine-protein kinase BRSK1 (Homo sapiens) (Q8TDC3 whole entry, the tested form may be a part): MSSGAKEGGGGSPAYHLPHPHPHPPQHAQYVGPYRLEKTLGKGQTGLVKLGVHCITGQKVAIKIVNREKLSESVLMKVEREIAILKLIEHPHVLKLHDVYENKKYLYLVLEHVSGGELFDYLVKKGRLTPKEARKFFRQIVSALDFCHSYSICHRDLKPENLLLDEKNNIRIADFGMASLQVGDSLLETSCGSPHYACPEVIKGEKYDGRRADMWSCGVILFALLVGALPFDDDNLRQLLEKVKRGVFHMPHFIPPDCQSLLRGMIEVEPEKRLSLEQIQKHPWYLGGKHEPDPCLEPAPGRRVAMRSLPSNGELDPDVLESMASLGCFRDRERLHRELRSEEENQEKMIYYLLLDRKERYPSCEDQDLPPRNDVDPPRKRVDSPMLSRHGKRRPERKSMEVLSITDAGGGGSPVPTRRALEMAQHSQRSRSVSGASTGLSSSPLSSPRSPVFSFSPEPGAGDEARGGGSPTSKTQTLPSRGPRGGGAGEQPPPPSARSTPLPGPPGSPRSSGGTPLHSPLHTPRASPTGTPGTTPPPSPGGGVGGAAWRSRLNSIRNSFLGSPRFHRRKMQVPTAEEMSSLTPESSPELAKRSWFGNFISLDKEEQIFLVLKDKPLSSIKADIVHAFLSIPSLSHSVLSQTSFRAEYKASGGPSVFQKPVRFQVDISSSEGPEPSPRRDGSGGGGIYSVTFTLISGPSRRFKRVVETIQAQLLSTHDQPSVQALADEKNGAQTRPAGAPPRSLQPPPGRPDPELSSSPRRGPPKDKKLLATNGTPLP

O=C(Nc1cccc([C@@H]2CN(c3ncnc4[nH]ccc34)CCN2CCO)c1)Nc1c(F)cccc1N1CCCC1
inhibition [1]: 61%
inhibition [2]: 84%
inhibition [3]: 36%
inhibition [4]: 90%
inhibition [5]: 99%
inhibition [6]: 100%
inhibition [7]: 76%
inhibition [8]: 18%
inhibition [9]: 35%
inhibition [10]: 95%
inhibition [11]: 100%
inhibition [12]: 100%
inhibition [13]: 74%
inhibition [14]: 100%
inhibition [15]: 86%
inhibition [16]: 26%
inhibition [17]: 75%
inhibition [18]: 100%

O=C(Nc1cccc([C@H]2CCCN(c3ncnc4[nH]ccc34)C2)c1)Nc1ccccc1N1CCCC1
inhibition [19]: 95%
inhibition [20]: 100%
inhibition [21]: 14%
inhibition [22]: 54%
inhibition [23]: 54%
inhibition [24]: 44%
inhibition [25]: 57%
inhibition [26]: 100%
inhibition [27]: 0.6%
